US20260008768A1, “UREA DERIVATIVES FOR INHIBITING NLRP3 AND USES THEREOF” (VENTUS THERAPEUTICS U.S., INC., priority 2023, published 2026)

Biological target: human NLRP3 (Homo sapiens, UniProt Q96P20)
Assay: Scintillation Proximity (SPA) NLRP3 Assay, displacement of 3H-MCC950
Type: binding
Conditions: Table B, activity class; displacement of 3H-MCC950 from human NLRP3
Method: Improved NLRP3 binding correlates with increased affinity for NLRP3 protein and, by extension, increased ability to interfere with its function.
SPA experiments were conducted in a total volume of 20 μL assay buffer containing 20 mM HEPES pH 7.5, 150 mM NaCl, 5 mM MgCl2, 0.01% (v/v) Tween-20, 0.01% (w/v) bovine serum albumin (BSA) and 100 μM of adenosine diphosphate (ADP). A human NLRP3 protein (350 nM) (see, e.g., Sharif et al., Nature (2019) 570:338-343; Hochheiser et al., Nature (2022) 604:184-189; Adreeva et al., Cell (2021) 184:6299-6312; Wang et al., J Exp. Med. (2021) 219:e20211147) was incubated with various concentration of compounds in 5% dimethyl sulfoxide (DMSO) final for 15 minutes at room temperature in a white half-area 96 well OptiPlate (PerkinElmer #6002290) before adding 125 nM final of 3H-MCC950. After the addition of radiolabeled MCC950, the plate was incubated for 60 minutes at room temperature before adding 0.25 mg/ml of copper-coated polyvinyltoluene SPA beads (PerkinElmer #RPNQ0095). The plate was then transferred to a microplate counter (PerkinElmer 2450 Microbeta) to collect binding data. Binding data was analyzed 6 hrs post-PVT bead addition to allow sufficient time to reach equilibrium. Specific binding was calculated from averaged duplicates by subtracting signal from wells without NLRP3 protein.
SPA NLRP3 IC50 assay results are provided in Table B. “A” activity=<1 uM; “B” activity=1-10 uM; “C” activity=>10-50 uM; “D” activity=>50 uM-100 uM; and “E” activity=>100 uM.

human NLRP3, sequence (Q96P20 whole entry): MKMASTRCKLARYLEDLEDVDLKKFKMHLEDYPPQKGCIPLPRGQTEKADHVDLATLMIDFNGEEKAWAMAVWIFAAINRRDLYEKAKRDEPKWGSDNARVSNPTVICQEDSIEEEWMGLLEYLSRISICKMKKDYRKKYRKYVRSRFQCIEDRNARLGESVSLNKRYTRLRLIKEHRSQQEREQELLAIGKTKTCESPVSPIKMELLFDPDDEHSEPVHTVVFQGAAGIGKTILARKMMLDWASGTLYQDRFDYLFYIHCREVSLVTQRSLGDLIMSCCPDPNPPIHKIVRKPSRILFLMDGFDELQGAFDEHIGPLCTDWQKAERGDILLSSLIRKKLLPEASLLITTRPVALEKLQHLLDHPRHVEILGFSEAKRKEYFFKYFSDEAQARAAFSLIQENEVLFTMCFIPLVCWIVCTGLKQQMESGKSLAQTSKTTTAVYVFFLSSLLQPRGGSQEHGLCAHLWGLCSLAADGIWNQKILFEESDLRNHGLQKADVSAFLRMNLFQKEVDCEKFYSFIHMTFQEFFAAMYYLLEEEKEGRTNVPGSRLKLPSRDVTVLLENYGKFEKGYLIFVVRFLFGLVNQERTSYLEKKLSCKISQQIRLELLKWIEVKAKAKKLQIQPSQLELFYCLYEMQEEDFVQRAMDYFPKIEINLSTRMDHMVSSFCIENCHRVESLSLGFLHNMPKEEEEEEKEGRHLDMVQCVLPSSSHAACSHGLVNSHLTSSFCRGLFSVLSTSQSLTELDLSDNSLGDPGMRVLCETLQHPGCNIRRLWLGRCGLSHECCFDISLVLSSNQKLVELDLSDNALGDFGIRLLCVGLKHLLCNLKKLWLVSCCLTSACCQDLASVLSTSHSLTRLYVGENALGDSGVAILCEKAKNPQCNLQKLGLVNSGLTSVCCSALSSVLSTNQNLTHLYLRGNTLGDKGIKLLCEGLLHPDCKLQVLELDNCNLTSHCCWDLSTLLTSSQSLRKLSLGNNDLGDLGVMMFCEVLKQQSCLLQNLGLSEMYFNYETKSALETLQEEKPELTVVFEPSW

Compound | IC50 [µM]
C[C@H]1C[C@@H](NC(=O)N(C)c2ccc(C(F)F)c(F)c2)[C@@H]2CC[C@H]1N2c1nnn[nH]1 (single isomer, unassigned) [53C*] | > 100
C[C@H]1C[C@@H](NC(=O)N(C)c2ccc(OC(F)(F)F)cc2F)[C@@H]2CC[C@H]1N2c1nnn[nH]1 (single isomer, unassigned) [56C*] | 50 to 100
C[C@H]1C[C@@H](NC(=O)N(C)c2ccc(OC(F)(F)F)c(F)c2)[C@@H]2CC[C@H]1N2c1nnn[nH]1 (single isomer, unassigned) [51C*] | > 100
C[C@H]1CCN(c2nnn[nH]2)C[C@@H](NC(=O)N(C)c2ccc(OC(F)(F)F)cc2F)C1 (single isomer, unassigned) [24D*] | 1 to 10
C[C@H]1C[C@@H](NC(=O)N(C)c2ccc(OC(F)(F)F)cc2)[C@@H]2CC[C@H]1N2c1nnn[nH]1 (single isomer, unassigned) [45C*] | 50 to 100
C[C@@H]1CCN(c2nnn[nH]2)C[C@@H](NC(=O)N(C)c2ccc(C(F)(F)F)nn2)C1 (single isomer, unassigned) [33B*] | 50 to 100
C[C@@H]1CCN(c2nnn[nH]2)C[C@@H](NC(=O)N(C)c2ccc(Cl)cn2)C1 (single isomer, unassigned) [28B*] | 50 to 100
C[C@@H]1C[C@H](NC(=O)N(C)c2ccc(OC(F)F)c(F)c2)[C@H]2CC[C@@H]1N2c1nnn[nH]1 (single isomer, unassigned) [52B*] | > 100
C[C@H]1CCN(c2nnn[nH]2)C[C@@H](NC(=O)N(C)c2ccc(Cl)nc2)C1 (single isomer, unassigned) [29D*] | 10 to 50
C[C@@H]1C[C@H](NC(=O)N(C)c2ccc(C3CC3)cc2)[C@H]2CC[C@@H]1N2c1nnn[nH]1 (single isomer, unassigned) [46B*] | 50 to 100
C[C@H]1C[C@@H](NC(=O)N(C)c2ccc(C3CC3)cc2)[C@@H]2CC[C@H]1N2c1nnn[nH]1 (single isomer, unassigned) [46C*] | 10 to 50
C[C@@H]1CCN(c2nnn[nH]2)C[C@@H](NC(=O)N(C)c2c(F)cc(OC(F)(F)F)cc2F)C1 (single isomer, unassigned) [41B*] | 1 to 10
C[C@H]1C[C@@H](NC(=O)N(C)c2ccc(OC(F)F)c(F)c2F)[C@@H]2CC[C@H]1N2c1nnn[nH]1 (single isomer, unassigned) [58C*] | 50 to 100
C[C@H]1C[C@H](NC(=O)N(C)c2ccc(C(F)(F)F)cc2F)[C@@H]2CC[C@H]1N2c1nnn[nH]1 (single isomer, unassigned) [48D*] | 10 to 50
C[C@@H]1C[C@H](NC(=O)N(C)c2ccc(OC(F)(F)F)c(OC(F)F)c2)[C@H]2CC[C@@H]1N2c1nnn[nH]1 (single isomer, unassigned) [63B*] | > 100
C[C@@H]1CCN(c2nnn[nH]2)C[C@@H](NC(=O)N(C)c2ccc(OC(F)(F)F)cc2F)C1 (single isomer, unassigned) [24B*] | 1 to 10

Compound | IC50 [µM]
C[C@H]1C[C@H](NC(=O)N(C)c2ccc(C(F)(F)F)c(F)c2F)[C@@H]2CC[C@H]1N2c1nnn[nH]1 (single isomer, unassigned) [47D*] | 10 to 50
C[C@H]1CCN(c2nnn[nH]2)C[C@H](NC(=O)N(C)c2ccc(C(F)F)cc2F)C1 (single isomer, unassigned) [18C*] | 10 to 50
C[C@@H]1C[C@H](NC(=O)N(C)c2ccc(C(F)F)c(F)c2)[C@H]2CC[C@@H]1N2c1nnn[nH]1 (single isomer, unassigned) [53B*] | > 100
C[C@@H]1C[C@H](NC(=O)N(C)c2ccc(Cl)c(F)c2)[C@H]2CC[C@@H]1N2c1nnn[nH]1 (single isomer, unassigned) [50B*] | > 100
C[C@H]1CCN(c2nnn[nH]2)C[C@H](NC(=O)N(C)c2ccc(OC(F)(F)F)c(F)c2)C1 (single isomer, unassigned) [14C*] | > 100
C[C@H]1CCN(c2nnn[nH]2)C[C@@H](NC(=O)N(C)c2ccc(Cl)cc2F)C1 (single isomer, unassigned) [5D*] | 1 to 10
C[C@H]1CCN(c2nnn[nH]2)C[C@H](NC(=O)N(C)c2ccc(OC(F)F)c(OC(F)F)c2)C1 (single isomer, unassigned) [16C*] | 50 to 100
C[C@H]1CCN(c2nnn[nH]2)C[C@@H](NC(=O)N(C)c2ncc(C(F)(F)F)cn2)C1 (single isomer, unassigned) [30D*] | > 100
C[C@H]1C[C@H](NC(=O)N(C)c2ccc(OC(F)F)cc2F)[C@@H]2CC[C@H]1N2c1nnn[nH]1 (single isomer, unassigned) [57D*] | 1 to 10
C[C@H]1C[C@@H](NC(=O)N(C)c2ccc(OC(F)(F)F)c(OC(F)F)c2)[C@@H]2CC[C@H]1N2c1nnn[nH]1 (single isomer, unassigned) [63C*] | 50 to 100
C[C@@H]1C[C@@H](NC(=O)N(C)c2ccc(C(F)F)c(F)c2)[C@H]2CC[C@@H]1N2c1nnn[nH]1 (single isomer, unassigned) [53A*] | 1 to 10
C[C@H]1C[C@H](NC(=O)N(C)c2c(F)cc(C3CC3)cc2F)[C@@H]2CC[C@H]1N2c1nnn[nH]1 (single isomer, unassigned) [60D*] | 1 to 10
C[C@H]1CCN(c2nnn[nH]2)C[C@H](NC(=O)N(C)c2ccc(OC(F)(F)F)cc2)C1 (single isomer, unassigned) [10C*] | > 100
C[C@@H]1CCN(c2nnn[nH]2)C[C@H](NC(=O)N(C)c2ncc(C(F)(F)F)cn2)C1 (single isomer, unassigned) [30A*] | > 100
C[C@@H]1C[C@H](NC(=O)N(C)c2ccc(OC(F)F)c(F)c2F)[C@H]2CC[C@@H]1N2c1nnn[nH]1 (single isomer, unassigned) [58B*] | > 100
CCN(C(=O)N[C@H]1C[C@H](C)[C@H]2CC[C@@H]1N2c1nnn[nH]1)c1ccc(OC(F)F)cc1F (single isomer, unassigned) [65D*] | 10 to 50

Other lines, results leading:

IC50 [µM] | Compound
> 100 | C[C@H]1CCN(c2nnn[nH]2)C[C@H](NC(=O)N(C)c2ccc(C(F)(F)F)cc2F)C1 (single isomer, unassigned) [13C*]
> 100 | O=C(N[C@@H]1CCCN(c2nnn[nH]2)C1)N(c1ccc(Cl)cc1)C1CC1 [Compound 3A, (R)-3-(1-(1H-tetrazol-5-yl)piperidin-3-yl)-1-(4-chlorophenyl)-1-cyclopropylurea]
10 to 50 | C[C@H]1CCN(c2nnn[nH]2)C[C@@H](NC(=O)N(C)c2ccc(Cl)cc2Cl)C1 (single isomer, unassigned) [7D*]
1 to 10 | C[C@H]1CCN(c2nnn[nH]2)C[C@H](NC(=O)N(C)c2ccc(OC(F)F)cc2F)C1 (single isomer, unassigned) [17C*]
1 to 10 | C[C@@H]1CCN(c2nnn[nH]2)C[C@@H](NC(=O)N(C)c2ccc(C(F)F)cc2F)C1 (single isomer, unassigned) [18B*]
> 100 | C[C@H]1CCN(c2nnn[nH]2)C[C@H](NC(=O)N(C)c2ccc(C3CC3)cc2)C1 (single isomer, unassigned) [8C*]
10 to 50 | C[C@H]1C[C@@H](NC(=O)N(C)c2ccc3ncoc3c2)CN(c2nnn[nH]2)C1 [Compound 35A, 1-(benzo[d]oxazol-6-yl)-1-methyl-3-((3R,5S)-5-methyl-1-(1H-tetrazol-5-yl)piperidin-3-yl)urea]
10 to 50 | C[C@@H]1CCN(c2nnn[nH]2)C[C@@H](NC(=O)N(C)c2cnc(C(F)(F)F)nc2)C1 (single isomer, unassigned) [31B*]
> 100 | C[C@H]1CCN(c2nnn[nH]2)C[C@H](NC(=O)N(C)c2ccc(C(F)(F)F)c(F)c2F)C1 (single isomer, unassigned) [21C*]
1 to 10 | C[C@@H]1CCN(c2nnn[nH]2)C[C@H](NC(=O)N(C)c2ccc(Cl)cn2)C1 (single isomer, unassigned) [28A*]
1 to 10 | C[C@@H]1CCN(c2nnn[nH]2)C[C@@H](NC(=O)N(C)c2ccc(C(F)(F)F)c(F)c2)C1 (single isomer, unassigned) [9B*]
1 to 10 | C[C@@H]1CCN(c2nnn[nH]2)C[C@@H](NC(=O)N(C)c2ccc(Cl)c(F)c2)C1 (single isomer, unassigned) [12B*]
> 100 | C[C@H]1C[C@@H](NC(=O)N(C)c2ccc3ccnn3c2)CN(c2nnn[nH]2)C1 [Compound 36A, 1-methyl-3-((3R,5S)-5-methyl-1-(1H-tetrazol-5-yl)piperidin-3-yl)-1-(pyrazolo[1,5-a]pyridin-6-yl)urea]
1 to 10 | CCN(C(=O)N[C@H]1C[C@@H](C)CCN(c2nnn[nH]2)C1)c1ccc(OC(F)(F)F)cc1 (single isomer, unassigned) [43D*]
1 to 10 | C[C@@H]1CCN(c2nnn[nH]2)C[C@@H](NC(=O)N(C)c2ccc(OC(F)F)c(OC(F)F)c2)C1 (single isomer, unassigned) [16B*]
10 to 50 | C[C@H]1C[C@@H](NC(=O)N(C)c2ccc3cnoc3c2)CN(c2nnn[nH]2)C1 [Compound 38A, 1-(benzo[d]isoxazol-6-yl)-1-methyl-3-((3R,5S)-5-methyl-1-(1H-tetrazol-5-yl)piperidin-3-yl)urea]
50 to 100 | C[C@H]1CCN(c2nnn[nH]2)C[C@H](NC(=O)N(C)c2ccc(Cl)cn2)C1 (single isomer, unassigned) [28C*]
